We go through 11 compounds from patent publication US20250122191A1, “COMPOUNDS AS BCL-2 INHIBITORS” (Fochon Biosciences, Ltd, priority 2021, published 2025).

As usually defined, the pIC50 is the IC50 on a negative log10 scale, so that one unit is a factor of ten.

pIC50: −log10 of the molar value.

One test relates to RS4;11-BCL-2 D103E cells. Description: Cell proliferation assay (MTS), RS4;11-BCL-2 D103E engineered cells. The format is cell-based. To be noted: Homo sapiens, 72 h, read-out: RS4, 11 BCL2-D103E IC50. An excerpt: MTS testing kit was purchased from Promega (Madison, WI, USA). The RPMI-1640, Fetal bovine serum and Penicillin-Streptomycin were purchased from BI (Biological Industries, Beit Haemek, Israel). Puromycin was purchased from Beyotime (shanghai, China). Dimethyl sulfoxide (DMSO) was purchased from Sigma (St. Louis., MO, USA). RS4;11-BCL-2 G101V (Cobioer Lot. #: CBD2021063013P4), RS4;11-BCL-2 D103E (Cobioer Lot. #: CBD2021063013P4), RS4;11-BCL-2 D103Y (Cobioer Lot. #: CBD2022012101P4) and RS4;11-BCL-2 F104L (Cobioer Lot. #: CBD2021063014P4) cells were cultured in RPMI1640 supplemented with 1 ug/mL puromycin, 100 U/mL Penicillin-Streptomycin and 10% FBS.
To investigate whether a compound is able to inhibit the activity of BCL-2 mutation in cells, a mechanism-based assay using engineered cell lines stably overexpressing BCL-2 mutation (RS4;11-BCL-2 G101V, RS4;11-BCL-2 D103E, RS4;11-BCL-2 D103Y, and RS4;11-BCL-2 F104L) was developed. In this assay, the inhibition of BCL-2 mutation was reflected by the inhibition of cell proliferation of engineered RS4;11 cells. Cells were plated into 96-well plates at optimized cell density (RS4;11-BCL-2 G101V: 5000 cells/well; RS4;11-BCL-2 D103E: 7500 cells/well; RS4;11-BCL-2 D103Y: 7500 cells/well; RS4;11-BCL-2 F104L: 5000 cells/well). Plates were incubated at 37° C., with 5% CO2 for 4 h (RS4;11-BCL-2 G101V, RS4;11-BCL-2 F104L) and 24 h (RS4;11-BCL-2 D103E, RS4;11-BCL-2 D103Y), respectively. Compounds were serially diluted and added to the plates with the final concentrations of 10000, 3333.3, 1111.1, 370.4, 123.5, 41.2, 13.7, 4.6 and 1.5 nM. Plates were incubated at 37° C., with 5% CO2 for 120 h (RS4; 11-BCL-2 G101V, RS4; 11-BCL-2 F104L) and 72 h (RS4;11-BCL-2 D103E, RS4;11-BCL-2 D103Y), respectively. 20 μl MTS was added into each well and the plates were incubated at 37° C., with 5% CO2 exactly for 2 h. The absorbance was measured by a microplate reader at 490 nm. IC50 values were calculated using GraphPad Prism 8.0 software.
Consider `COc1cc(CN2CCN(C3CC4(CCN(c5ccc(C(=O)NS(=O)(=O)c6cnc(OC[C@H]7CC[C@](C)(O)CC7)c([N+](=O)[O-])c6)c(Oc6cc7c(F)c[nH]c7nc6OC)c5)CC4)C3)[C@H](c3ccccc3C(C)C)C2)ccn1` [Example 261, 2-((3-fluoro-6-methoxy-1H-pyrrolo[2,3-b]pyridin-5-yl)oxy)-N-((6-(((1r,4r)-4-hydroxy-4-methylcyclohexyl)methoxy)-5-nitropyridin-3-yl)sulfonyl)-4-(2-((R)-2-(2-isopropylphenyl)-4-((2-methoxypyridin-4-yl)methyl)piperazin-1-yl)-7-azaspiro [3.5]nonan-7-yl)benzamide], for which the pIC50 was 8.70.

Take `COc1nc2[nH]cc(F)c2cc1Oc1cc(N2CCC3(CC2)CC(N2CCN(Cc4ccnc(C(C)(F)F)c4)C[C@H]2c2ccccc2C(C)C)C3)ccc1C(=O)NS(=O)(=O)c1cnc(NC[C@H]2CC[C@](C)(O)CC2)c([N+](=O)[O-])c1` [Example 149, 4-(2-((R)-4-((2-(1,1-difluoroethyl)pyridin-4-yl)methyl)-2-(2-isopropylphenyl)piperazin-1-yl)-7-azaspiro[3.5]nonan-7-yl)-2-((3-fluoro-6-methoxy-1H-pyrrolo[2,3-b]pyridin-5-yl)oxy)-N-((6-((((1r,4r)-4-hydroy-4-methylcyclohexyl)methyl)amino)-5-nitropyridin-3-yl)sulfonyl)benzamide]: the pIC50 is 9.00. Consider `COc1nc2[nH]cc(F)c2cc1Oc1cc(N2CCC3(CC2)CC(N2CCN(Cc4ccnc5c4OC(C)CN5)C[C@H]2c2ccccc2C(C)C)C3)ccc1C(=O)NS(=O)(=O)c1cnc(NC[C@H]2CC[C@](C)(O)CC2)c([N+](=O)[O-])c1` (stereo partly drawn) [Example 196, 2-((3-fluoro-6-methoxy-1H-pyrrolo[2,3-b]pyridin-5-yl)oxy)-N-((6-((((1r,4r)-4-hydroxy-4-methylcyclohexyl)methyl)amino)-5-nitropyridin-3-yl)sulfonyl)-4-(2-((2R)-2-(2-isopropylphenyl)-4-((2-methyl-3,4-dihydro-2H-pyrido[3,2-b][1,4]oxazin-8-yl)methyl)piperazin-1-yl)-7-azaspiro[3.5]nonan-7-yl)benzamide], for which the pIC50 was 9.00. On the same count and under the same terms, the result for `COc1nc2[nH]cc(F)c2cc1Oc1cc(N2CCC3(CC2)CC(N2CCN(Cc4ccnc5c4OCCO5)C[C@H]2c2ccccc2C(C)C)C3)ccc1C(=O)NS(=O)(=O)c1cnc(NC[C@H]2CC[C@](C)(O)CC2)c([N+](=O)[O-])c1` [Example 191, 4-(2-((R)-4-((2,3-dihydro-[1,4]dioxino[2,3-b]pyridin-8-yl)methyl)-2-(2-isopropylphenyl)piperazin-1-yl)-7-azaspiro[3.5]nonan-7-yl)-2-((3-fluoro-6-methoxy-1H-pyrrolo[2,3-b]pyridin-5-yl)oxy)-N-((6-((((1r,4r)-4-hydroxy-4-methylcyclohexyl)methyl)amino)-5-nitropyridin-3-yl)sulfonyl)benzamide] reads 9.00; that for `COC1CCC(N2CCN(C3CC4(CCN(c5ccc(C(=O)NS(=O)(=O)c6cnc(NC[C@H]7CC[C@](C)(O)CC7)c([N+](=O)[O-])c6)c(Oc6cnc7[nH]cc(F)c7c6)c5)CC4)C3)[C@H](c3ccccc3C(C)C)C2)CC1` (stereo partly drawn) [Example 326, 2-((3-fluoro-1H-pyrrolo[2,3-b]pyridin-5-yl)oxy)-N-((6-((((1r,4r)-4-hydroxy-4-methylcyclohexyl)methyl)amino)-5-nitropyridin-3-yl)sulfonyl)-4-(2-((R)-2-(2-isopropylphenyl)-4-(4-methoxycyclohexyl)piperazin-1-yl)-7-azaspiro[3.5]nonan-7-yl)benzamide], 9.00; that for `COc1nc2[nH]cc(F)c2cc1Oc1cc(N2CCC3(CC2)CC(N2CCN(Cc4ccnc(O)c4)C[C@H]2c2ccccc2C(C)C)C3)ccc1C(=O)NS(=O)(=O)c1cnc(NC[C@H]2CC[C@](C)(O)CC2)c([N+](=O)[O-])c1` [Example 199, 2-((3-fluoro-6-methoxy-1H-pyrrolo[2,3-b]pyridin-5-yl)oxy)-N-((6-((((1r,4r)-4-hydroxy-4-methylcyclohexyl)methyl)amino)-5-nitropyridin-3-yl)sulfonyl)-4-(2-((R)-4-((2-hydroxypyridin-4-yl)methyl)-2-(2-isopropylphenyl)piperazin-1-yl)-7-azaspiro[3.5]nonan-7-yl)benzamide], 9.00. On the same count and under the same terms, the result for `COc1nc2[nH]cc(F)c2cc1Oc1cc(N2CCC3(CC2)CC(N2CCN(Cc4ccnc5c4OCO5)C[C@H]2c2ccccc2C(C)C)C3)ccc1C(=O)NS(=O)(=O)c1cnc(NC[C@H]2CC[C@](C)(O)CC2)c([N+](=O)[O-])c1` [Example 189, 4-(2-((R)-4-([1,3]dioxolo[4,5-b]pyridin-7-ylmethyl)-2-(2-isopropylphenyl)piperazin-1-yl)-7-azaspiro[3.5]nonan-7-yl)-2-((3-fluoro-6-methoxy-1H-pyrrolo[2,3-b]pyridin-5-yl)oxy)-N-((6-((((1r,4r)-4-hydroxy-4-methylcyclohexyl)methyl)amino)-5-nitropyridin-3-yl)sulfonyl)benzamide] reads 9.00; that for `COc1nc2[nH]cc(F)c2cc1Oc1cc(N2CCC3(CC2)CC(N2CCN(C4CCC(O)CC4)C[C@H]2c2ccccc2C(C)C)C3)ccc1C(=O)NS(=O)(=O)c1cnc(NC[C@H]2CC[C@](C)(O)CC2)c([N+](=O)[O-])c1` (single isomer, unassigned) [Example 331], 9.00. The same measure, in the same setting: to `COc1nccc(CN2CCN(C3CC4(CCN(c5ccc(C(=O)NS(=O)(=O)c6cnc(NC[C@H]7CC[C@](C)(O)CC7)c([N+](=O)[O-])c6)c(Oc6cc7c(F)c[nH]c7nc6OC)c5)CC4)C3)[C@H](c3ccccc3C(C)C)C2)n1` [Example 165, 2-((3-fluoro-6-methoxy-1H-pyrrolo[2,3-b]pyridin-5-yl)oxy)-N-((6-((((1r,4r)-4-hydroxy-4-methylcyclohexyl)methyl)amino)-5-nitropyridin-3-yl)sulfonyl)-4-(2-((R)-2-(2-isopropylphenyl)-4-((2-methoxypyrimidin-4-yl)methyl)piperazin-1-yl)-7-azaspiro[3.5]nonan-7-yl)benzamide] belongs 9.00.

A further test concerns RS4;11-BCL-2 G101V cells. The test can be described thus: Cell proliferation assay (MTS), RS4;11-BCL-2 G101V engineered cells. The class given is cell-based. To be noted: Homo sapiens, 120 h, read-out: RS4, 11 BCL2-G101V IC50. The procedure, abridged:
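Inhibition of mutant BCL-2 is inferred from reduced proliferation of RS4;11 cells stably overexpressing the mutant. Compounds are tested at 1.5–10000 nM for 120 h (G101V, F104L) or 72 h (D103E, D103Y), with MTS absorbance at 490 nm used to derive IC50.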
`CC(C)c1ccccc1[C@@H]1CN(Cc2cc3c(cn2)OCCO3)CCN1C1CC2(CCN(c3ccc(C(=O)NS(=O)(=O)c4cnc(NC[C@H]5CC[C@](C)(O)CC5)c([N+](=O)[O-])c4)c(Oc4cnc5[nH]cc(F)c5c4)c3)CC2)C1` [Example 341, 4-(2-((R)-4-((2,3-dihydro-[1,4]dioxino[2,3-c]pyridin-7-yl)methyl)-2-(2-isopropylphenyl)piperazin-1-yl)-7-azaspiro[3.5]nonan-7-yl)-2-((3-fluoro-1H-pyrrolo[2,3-b]pyridin-5-yl)oxy)-N-((6-((((1r,4r)-4-hydroxy-4-methylcyclohexyl)methyl)amino)-5-nitropyridin-3-yl)sulfonyl)benzamide]: the pIC50 is 9.00. The same measure, in the same setting: to `CCOc1nc2[nH]cc(F)c2cc1Oc1cc(N2CCC3(CC2)CC(N2CCN(C)C[C@H]2c2ccccc2C(C)C)C3)ccc1C(=O)NS(=O)(=O)c1cnc(NC[C@H]2CC[C@](C)(O)CC2)c([N+](=O)[O-])c1` [Example 138, 2-((6-ethoxy-3-fluoro-1H-pyrrolo[2,3-b]pyridin-5-yl)oxy)-N-((6-((((1r,4r)-4-hydroxy-4-methylcyclohexyl)methyl)amino)-5-nitropyridin-3-yl)sulfonyl)-4-(2-((R)-2-(2-isopropylphenyl)-4-methylpiperazin-1-yl)-7-azaspiro[3.5]nonan-7-yl)benzamide] belongs 9.00.

A further test concerns Toledo cells. Description: Cell proliferation assay (MTS), Toledo cells. The format is cell-based. The following applies: Homo sapiens, 72 h. The procedure, abridged:
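Toledo cells (RPMI-1640, 10% FBS) seeded at 30000 cells/well, rested 4 h, then exposed 72 h at 37 °C, 5% CO2 to compound at nine final concentrations, 1.5–10000 nM. Viability by MTS (2 h), absorbance at 490 nm. IC50 from the concentration-response.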
`CC(C)c1ccccc1[C@@H]1CN(Cc2cc3c(cn2)OCCO3)CCN1C1CC2(CCN(c3ccc(C(=O)NS(=O)(=O)c4cnc(NC[C@H]5CC[C@](C)(O)CC5)c([N+](=O)[O-])c4)c(Oc4cnc5[nH]cc(F)c5c4)c3)CC2)C1` [Example 341, 4-(2-((R)-4-((2,3-dihydro-[1,4]dioxino[2,3-c]pyridin-7-yl)methyl)-2-(2-isopropylphenyl)piperazin-1-yl)-7-azaspiro[3.5]nonan-7-yl)-2-((3-fluoro-1H-pyrrolo[2,3-b]pyridin-5-yl)oxy)-N-((6-((((1r,4r)-4-hydroxy-4-methylcyclohexyl)methyl)amino)-5-nitropyridin-3-yl)sulfonyl)benzamide] had a pIC50 of 9.00. Same read-out and setting: the result for `CCOc1nc2[nH]cc(F)c2cc1Oc1cc(N2CCC3(CC2)CC(N2CCN(C)C[C@H]2c2ccccc2C(C)C)C3)ccc1C(=O)NS(=O)(=O)c1cnc(NC[C@H]2CC[C@](C)(O)CC2)c([N+](=O)[O-])c1` [Example 138, 2-((6-ethoxy-3-fluoro-1H-pyrrolo[2,3-b]pyridin-5-yl)oxy)-N-((6-((((1r,4r)-4-hydroxy-4-methylcyclohexyl)methyl)amino)-5-nitropyridin-3-yl)sulfonyl)-4-(2-((R)-2-(2-isopropylphenyl)-4-methylpiperazin-1-yl)-7-azaspiro[3.5]nonan-7-yl)benzamide] reads 9.00.
